A value given as a limit tells only on which side of the number the result lay.

In one experiment the target is T1, Tyrosinase (Homo sapiens, UniProt P14679).
T1 sequence (P14679 whole entry): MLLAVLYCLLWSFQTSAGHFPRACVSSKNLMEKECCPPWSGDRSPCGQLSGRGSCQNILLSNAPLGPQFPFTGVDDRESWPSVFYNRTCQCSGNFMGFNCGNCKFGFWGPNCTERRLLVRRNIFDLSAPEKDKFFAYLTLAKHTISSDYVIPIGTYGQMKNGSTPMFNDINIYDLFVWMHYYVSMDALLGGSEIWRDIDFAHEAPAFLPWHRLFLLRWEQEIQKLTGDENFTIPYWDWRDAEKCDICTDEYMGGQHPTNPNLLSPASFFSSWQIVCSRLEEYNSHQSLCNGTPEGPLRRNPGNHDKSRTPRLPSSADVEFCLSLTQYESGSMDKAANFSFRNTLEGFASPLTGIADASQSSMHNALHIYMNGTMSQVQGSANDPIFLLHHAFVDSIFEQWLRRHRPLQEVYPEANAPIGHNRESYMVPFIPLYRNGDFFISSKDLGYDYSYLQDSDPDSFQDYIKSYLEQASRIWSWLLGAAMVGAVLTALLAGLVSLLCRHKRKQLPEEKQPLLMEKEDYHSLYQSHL
The experiment can be described thus: Inhibition of tyrosinase (unknown origin).

Another experiment relates to Leishmania. Put plainly: Antimicrobial activity against Leishmania. Format: functional, organism-based.
Another experiment relates to Bacteria. Put plainly: Antimicrobial activity against bacteria. Format: functional, organism-based.
A short description of experiment [1]: Antioxidant activity assessed as DPPH radical scavenging activity incubated for 30 mins by UV-spectrophotometric method. In kind it is functional.

The IC50 is the concentration at which inhibition is half-maximal. Regarding `COc1ccc(-c2cc(=O)c3c(O)cc(O[C@@H]4O[C@H](CO[C@@H]5O[C@@H](C)[C@H](O)[C@@H](O)[C@H]5O)[C@@H](O)[C@H](O)[C@H]4O)cc3o2)cc1` [ACACIIN], the IC50 at Tyrosinase, with Leishmania and in the experiment with Bacteria was greater than 50 µM in each case.
As for `C=C[C@]1(C)C[C@H](OC(=O)C(=C)CO)[C@@H]2[C@H](OC(=O)[C@H]2CN2CCC[C@H]2C(=O)O)[C@H]1C(=C)CO`, the 50% inhibitory concentration (IC50) against Tyrosinase, with Leishmania and in the experiment on Bacteria was greater than 50 µM in each case.
On to `C=C[C@]1(C)C[C@H](OC(=O)[C@@H](C)CO)[C@@H]2[C@H](OC(=O)[C@H]2CN2CCC[C@H]2C(=O)O)[C@H]1C(=C)CO`, for which the IC50 on Tyrosinase, in the experiment on Leishmania and in the experiment with Bacteria was greater than 50 µM throughout.
In the case of `C[C@@H]1O[C@@H](OC[C@H]2O[C@@H](Oc3cc(O)c4c(=O)cc(-c5ccc(O)cc5)oc4c3)[C@H](O)[C@@H](O)[C@@H]2O)[C@H](O)[C@H](O)[C@H]1O` [ISORHOIFOLIN], the IC50 against Tyrosinase, with Leishmania and in the experiment with Bacteria was greater than 50 µM in each case.
Turning to `O=C(/C=C/c1ccc(O)c(O)c1)O[C@H]1[C@H](O)[C@@H](O)[C@H](Oc2cc(O)c3c(=O)cc(-c4ccc(O)c(O)c4)oc3c2)O[C@@H]1CO`, the IC50 in experiment [1] is 68.9 µM; at Tyrosinase, greater than 50 µM; in the experiment with Leishmania, greater than 50 µM; in the experiment on Bacteria, greater than 50 µM.
For `O=c1cc(-c2ccc(O)cc2)oc2cc(O[C@@H]3O[C@H](CO)[C@@H](O)[C@H](O)[C@H]3O)cc(O)c12` [APIGETRIN], the IC50 at Tyrosinase, in the experiment on Leishmania and in the experiment on Bacteria was greater than 50 µM each time.
For `C[C@@H]1O[C@@H](Oc2cc(O)c3c(=O)cc(-c4ccc(O)cc4)oc3c2)[C@H](O)[C@H](O)[C@H]1O`, the IC50 against Tyrosinase, with Leishmania and in the experiment on Bacteria was greater than 50 µM throughout.
With `O=c1c(O[C@@H]2O[C@H](CO)[C@@H](O)[C@H](O)[C@H]2O)c(-c2ccc(O)c(O)c2)oc2cc(O)cc(O)c12` [ISOQUERCETIN], the IC50 is 75.3 µM in experiment [1], greater than 50 µM against Tyrosinase, greater than 50 µM with Leishmania and greater than 50 µM with Bacteria.
As for `C=C[C@]1(C)C[C@H](OC(=O)/C(=C/C)CO)[C@@H]2[C@H](OC(=O)[C@H]2CN2CCC[C@H]2C(=O)O)[C@H]1C(=C)CO`, the IC50 against Tyrosinase, with Leishmania and with Bacteria was greater than 50 µM in each case.
Regarding `COC(=O)[C@H]1O[C@@H](Oc2cc(O)c3c(=O)cc(-c4ccc(O)cc4)oc3c2)[C@H](O)[C@@H](O)[C@@H]1O`, the IC50 against Tyrosinase, in the experiment with Leishmania and in the experiment with Bacteria was greater than 50 µM in each case.
For the compound `COc1ccc(-c2cc(=O)c3c(O)cc(O[C@@H]4O[C@H](CO)[C@@H](O)[C@H](O)[C@H]4O)cc3o2)cc1` [TILIANINE], the concentration for half-maximal inhibition (IC50) against Tyrosinase, in the experiment with Leishmania and in the experiment on Bacteria was greater than 50 µM throughout.
Regarding `COc1ccc(C[C@H]2COC(=O)[C@@H]2Cc2ccc(O[C@@H]3O[C@H](CO)[C@@H](O)[C@H](O)[C@H]3O)c(OC)c2)cc1OC` [ARCTIIN], the half-inhibitory concentration (IC50) at Tyrosinase, in the experiment with Leishmania and in the experiment with Bacteria was greater than 50 µM throughout.
As to `C=C(CO)C(=O)O[C@H]1C/C(C)=C/CC/C(CO)=C/[C@H]2OC(=O)[C@@H](CN3CCC[C@H]3C(=O)O)[C@H]12`, the IC50 on Tyrosinase, in the experiment on Leishmania and in the experiment on Bacteria was greater than 50 µM each time.
Take `COC(=O)[C@H]1O[C@@H](Oc2cc(O)c3c(=O)cc(-c4ccc(OC)cc4)oc3c2)[C@H](O)[C@@H](O)[C@@H]1O`: the IC50 on Tyrosinase, in the experiment with Leishmania and in the experiment with Bacteria was greater than 50 µM throughout.

The values above are taken from ChEMBL document CHEMBL4392888, “Isolation of Sesquiterpene-Amino Acid Conjugates, Onopornoids A-D, and a Flavonoid Glucoside from Onopordum alexandrinum” (J Nat Prod, 2019).
